Format in all cases: cell-based
Assay [1] deals with T1, TRPM4 (Homo sapiens, UniProt Q8TD43).
In assay [2] the target is T1, TRPM4. The experiment in a line: Na+ influx screening assay.
For a further assay, the target named is T2, TRPM5 (Homo sapiens, UniProt Q9NZQ8).
T2 sequence (Q9NZQ8 1-1165): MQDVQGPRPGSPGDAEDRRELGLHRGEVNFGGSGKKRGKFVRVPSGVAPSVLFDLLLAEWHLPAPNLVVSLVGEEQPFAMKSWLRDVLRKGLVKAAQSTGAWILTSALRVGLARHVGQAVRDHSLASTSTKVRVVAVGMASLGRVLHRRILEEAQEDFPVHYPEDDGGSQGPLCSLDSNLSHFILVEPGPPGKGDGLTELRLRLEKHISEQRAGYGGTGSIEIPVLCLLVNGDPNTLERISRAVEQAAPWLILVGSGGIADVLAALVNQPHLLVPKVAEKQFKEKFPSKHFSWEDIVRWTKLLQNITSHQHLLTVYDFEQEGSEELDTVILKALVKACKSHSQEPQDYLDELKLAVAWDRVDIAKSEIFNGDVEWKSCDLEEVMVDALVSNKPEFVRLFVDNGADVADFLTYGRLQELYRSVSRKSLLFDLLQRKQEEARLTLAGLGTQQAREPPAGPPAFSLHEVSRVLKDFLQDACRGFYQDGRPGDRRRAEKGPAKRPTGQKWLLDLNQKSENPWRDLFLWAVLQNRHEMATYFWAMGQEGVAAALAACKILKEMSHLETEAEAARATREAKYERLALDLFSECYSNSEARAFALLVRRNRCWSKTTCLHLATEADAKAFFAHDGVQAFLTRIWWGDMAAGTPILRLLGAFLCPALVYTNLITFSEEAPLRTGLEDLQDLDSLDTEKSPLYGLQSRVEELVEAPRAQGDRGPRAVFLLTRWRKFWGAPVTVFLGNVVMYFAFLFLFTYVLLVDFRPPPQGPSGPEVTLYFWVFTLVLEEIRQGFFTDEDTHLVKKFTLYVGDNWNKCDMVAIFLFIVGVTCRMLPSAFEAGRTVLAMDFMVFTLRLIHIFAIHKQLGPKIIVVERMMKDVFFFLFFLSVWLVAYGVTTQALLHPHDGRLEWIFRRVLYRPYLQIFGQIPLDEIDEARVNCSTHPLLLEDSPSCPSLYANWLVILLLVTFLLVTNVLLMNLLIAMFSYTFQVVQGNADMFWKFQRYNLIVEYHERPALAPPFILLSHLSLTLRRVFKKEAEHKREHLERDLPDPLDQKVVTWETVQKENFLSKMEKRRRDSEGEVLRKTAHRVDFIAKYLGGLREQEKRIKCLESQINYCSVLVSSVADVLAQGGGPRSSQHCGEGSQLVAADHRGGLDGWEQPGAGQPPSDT
The experiment in a line: Excised membrane voltage clamp recordings on HEK293 cells expressing TRPM5. To be noted: excised patches, 50 μM free Ca2+, +100 mV.

The target of another assay is TRPM4 A432T (Homo sapiens, UniProt Q8TD43, A432T). Nature of the assay: Western blot of total and surface expression of TRPM4 A432T variant. The settings on record: 50 μM overnight, HEK293. (In general: A western blot detects proteins with antibodies after separation by electrophoresis.)
TRPM4 A432T, sequence (Q8TD43 whole entry A432T): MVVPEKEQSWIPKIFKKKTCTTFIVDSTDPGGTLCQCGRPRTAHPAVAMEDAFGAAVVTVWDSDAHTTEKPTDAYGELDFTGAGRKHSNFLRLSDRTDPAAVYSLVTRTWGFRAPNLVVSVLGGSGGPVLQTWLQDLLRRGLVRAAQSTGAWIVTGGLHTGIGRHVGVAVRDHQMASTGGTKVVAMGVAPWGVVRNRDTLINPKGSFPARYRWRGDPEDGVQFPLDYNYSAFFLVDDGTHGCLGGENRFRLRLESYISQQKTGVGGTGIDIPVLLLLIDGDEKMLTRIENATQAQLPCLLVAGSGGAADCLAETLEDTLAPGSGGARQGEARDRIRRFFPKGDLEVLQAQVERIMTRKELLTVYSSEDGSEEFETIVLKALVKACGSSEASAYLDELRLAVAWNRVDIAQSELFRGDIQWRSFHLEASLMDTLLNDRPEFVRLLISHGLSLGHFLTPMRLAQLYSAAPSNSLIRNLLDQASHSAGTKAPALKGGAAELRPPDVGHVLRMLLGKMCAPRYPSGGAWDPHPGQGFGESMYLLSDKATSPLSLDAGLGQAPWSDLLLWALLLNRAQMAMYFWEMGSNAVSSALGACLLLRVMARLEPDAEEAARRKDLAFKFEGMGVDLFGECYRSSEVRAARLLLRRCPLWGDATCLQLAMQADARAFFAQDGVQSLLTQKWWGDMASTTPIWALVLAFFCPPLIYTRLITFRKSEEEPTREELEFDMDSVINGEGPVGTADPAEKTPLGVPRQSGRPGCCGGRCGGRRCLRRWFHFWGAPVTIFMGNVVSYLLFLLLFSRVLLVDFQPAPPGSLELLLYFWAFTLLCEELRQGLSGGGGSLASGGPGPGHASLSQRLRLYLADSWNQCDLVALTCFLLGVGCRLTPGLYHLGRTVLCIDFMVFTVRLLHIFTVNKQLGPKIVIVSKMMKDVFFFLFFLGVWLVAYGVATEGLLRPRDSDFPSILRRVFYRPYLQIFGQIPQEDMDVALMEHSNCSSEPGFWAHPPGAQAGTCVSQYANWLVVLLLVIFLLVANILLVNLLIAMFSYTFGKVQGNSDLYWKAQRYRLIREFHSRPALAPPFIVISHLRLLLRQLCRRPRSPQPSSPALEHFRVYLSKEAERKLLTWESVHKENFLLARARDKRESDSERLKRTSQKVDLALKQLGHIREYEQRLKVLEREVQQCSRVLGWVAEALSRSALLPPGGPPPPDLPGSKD

Results on six molecules are retold here after publication PMC6002741 (British Journal of Pharmacology, 2018).

T1 sequence (Q8TD43 whole entry): as the sequence (Q8TD43 whole entry A432T) above, with T432A counted along it

Broadly, the IC50 is the concentration at which inhibition is half-maximal. A lower IC50 goes with greater potency. At TRPM4 [1], `Oc1cc2ccccc2c2ccccc12` [9-phenanthrol, reference compound] had an IC50 of 17 ± 2.8 µM.

Regarding `Cc1cc(Cl)ccc1OC(C)C(=O)Nc1cc(Cl)ccc1C(=O)O` (stereo not shown) [Compound 4], the “inhibitory activity on TRPM4-mediated Na+ influx, hit confirmation” value against TRPM4 [2] (5 μM, repurchased solid samples) was “confirmed their inhibitory activity”. Besides, the “effect on TRPM5 current” value at TRPM5 is “variable potentiating effect”. Also, the IC50 on TRPM4 [1] turned out to be 1 ± 0.2 µM. In addition, the “inhibition of TRPM4 current on application to the cytosolic side” value against TRPM4 [1] (1 μM on cytosolic side of excised patches, washout) was “reversible inhibition”.

On TRPM4 [1], `O=C(COc1ccccc1Cl)Nc1cc(Br)ccc1C(=O)O` [Compound 11] yielded an IC50 of 1.6 ± 0.5 µM.

`Cc1cc(Cl)ccc1OCC(=O)Nc1cc(Cl)ccc1C(=O)O` [Compound 51]: the “TRPM4 inhibitory activity in words (SAR)” value on TRPM4 [2] (Na+ influx, Supporting Information Table S3 / text) is recorded as “no inhibitory activity”. The “rescue of A432T total and surface expression” value at TRPM4 A432T was “did not restore the expression”.

Molecule `O=C(O)c1ccccc1Nc1cccc(C(F)(F)F)c1` [FFA, flufenamic acid, reference compound] returned an IC50 against TRPM4 [1] of 9.2 ± 1.2 µM.

For `O=P(c1ccccc1)(c1ccccc1)c1ccccc1` [TPPO, triphenylphosphine oxide, reference compound], the “effect on TRPM5 current (positive control)” value on TRPM5 (20 μM) is given as “inhibited TRPM5 current”.
